According to patent publication US20080175794A1, “Substituted Pyridazinyl- and Pyrimidinyl-Quinolin-4-Ylamine Analogues” (NEUROGEN CORPORATION, priority 2005, published 2008):

The compounds below were run against T1, human capsaicin receptor (Homo sapiens, UniProt Q8NER1) (assay: Calcium mobilization assay, determination of antagonist activity (Example 6)). Details: Table III; assay provided in Example 6; cells expressing human capsaicin receptor, capsaicin at EC50.
T1 construct: expressed in transfected cells
T1 sequence (Q8NER1 whole entry): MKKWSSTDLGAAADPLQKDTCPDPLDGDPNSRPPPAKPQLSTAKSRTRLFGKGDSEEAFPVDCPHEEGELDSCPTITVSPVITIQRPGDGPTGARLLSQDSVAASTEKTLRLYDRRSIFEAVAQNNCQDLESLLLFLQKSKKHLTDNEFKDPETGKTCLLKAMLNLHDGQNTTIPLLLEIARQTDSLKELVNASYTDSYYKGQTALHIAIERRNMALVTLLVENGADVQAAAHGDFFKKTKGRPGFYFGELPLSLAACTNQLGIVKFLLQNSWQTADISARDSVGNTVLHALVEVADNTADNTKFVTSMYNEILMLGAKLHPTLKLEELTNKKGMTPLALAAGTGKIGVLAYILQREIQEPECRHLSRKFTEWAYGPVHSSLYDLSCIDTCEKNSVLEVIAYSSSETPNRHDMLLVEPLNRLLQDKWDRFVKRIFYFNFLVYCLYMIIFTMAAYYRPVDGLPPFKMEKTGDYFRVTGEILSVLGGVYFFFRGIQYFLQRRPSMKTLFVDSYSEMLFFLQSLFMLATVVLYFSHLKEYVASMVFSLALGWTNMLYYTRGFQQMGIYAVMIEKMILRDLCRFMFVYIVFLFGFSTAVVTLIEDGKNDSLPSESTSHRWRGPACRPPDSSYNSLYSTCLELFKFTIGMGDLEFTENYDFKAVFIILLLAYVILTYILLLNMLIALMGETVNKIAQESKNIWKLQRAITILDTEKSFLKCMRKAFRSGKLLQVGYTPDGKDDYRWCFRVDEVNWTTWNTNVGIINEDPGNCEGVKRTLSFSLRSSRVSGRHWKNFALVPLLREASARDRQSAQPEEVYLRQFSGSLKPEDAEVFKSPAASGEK
Assay type: cell-based
How it was run: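 Stable HEK293 clones expressing full-length human capsaicin receptor, loaded with Fluo-3 AM in KRH buffer pH 7.4 (1–2 h, 37 °C). Test compound (1–5 μM final) preincubated 0.5–6 h at room temperature in the dark, then capsaicin added at its EC50. FLIPR/Fluoroskan calcium signal; IC50 as concentration halving the capsaicin response.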

Row | SMILES | IC50 [µM]
1 | CC1CCN(c2cc(C(F)(F)F)c(-c3cnc4c(Nc5ccc(C(F)(F)F)cn5)ccnc4n3)nn2)CC1 [Compound 177, 3-[6-(4-methylpiperidin-1-yl)-4-(trifluoromethyl)pyridazin-3-yl]-N-[5-(trifluoromethyl)pyridin-2-yl]pyrido[2,3-b]pyrazin-8-amine] | < 1
2 | OCCCNc1cc(C(F)(F)F)c(-c2cnc3c(Nc4ccc(C(F)(F)F)cn4)ccnc3n2)nn1 [Compound 169, 3-{[5-(trifluoromethyl)-6-(8-{[5-(trifluoromethyl)pyridin-2-yl]amino}pyrido[2,3-b]pyrazin-3-yl)pyridazin-3-yl]amino}propan-1-ol] | < 1
3 | FC(F)(F)c1ccc(Nc2ccnc3nc(-c4nnc(NCCCN5CCCC5)cc4C(F)(F)F)cnc23)nc1 [Compound 77, 3-{6-[(3-pyrrolidin-1-ylpropyl)amino]-4-(trifluoromethyl)pyridazin-3-yl}-N-[5-(trifluoromethyl)pyridin-2-yl]pyrido[2,3-b]pyrazin-8-amine] | < 1
4 | CN(CCO)c1cc(C(F)(F)F)c(-c2cnc3c(Nc4ccc(C(F)(F)F)cn4)ccnc3n2)nn1 [Compound 135, 2-{methyl[5-(trifluoromethyl)-6-(8-{[5-(trifluoromethyl)pyridin-2-yl]amino}pyrido[2,3-b]pyrazin-3-yl)pyridazin-3-yl]amino}ethanol] | < 1
5 | CCCN(C)c1cc(C(F)(F)F)c(-c2cnc3c(Nc4ccc(C(F)(F)F)cn4)ccnc3n2)nn1 [Compound 121, 3-{6-[methyl(propyl)amino]-4-(trifluoromethyl)pyridazin-3-yl}-N-[5-(trifluoromethyl)pyridin-2-yl]pyrido[2,3-b]pyrazin-8-amine] | < 1
6 | CCN1CCCC1CNc1cc(C(F)(F)F)c(-c2cnc3c(Nc4ccc(C(F)(F)F)cn4)ccnc3n2)nn1 (stereo not drawn) [Compound 76, 3-[6-{[(1-ethylpyrrolidin-2-yl)methyl]amino}-4-(trifluoromethyl)pyridazin-3-yl]-N-[5-(trifluoromethyl)pyridin-2-yl]pyrido[2,3-b]pyrazin-8-amine] | < 1
7 | CC1(C)CCN1c1cc(C(F)(F)F)c(-c2cnc3c(Nc4ccc(C(F)(F)F)cn4)ccnc3n2)nn1 [Compound 131, 3-[6-(2,2-dimethylazetidin-1-yl)-4-(trifluoromethyl)pyridazin-3-yl]-N-[5-(trifluoromethyl)pyridin-2-yl]pyrido[2,3-b]pyrazin-8-amine] | < 1
8 | FC(F)(F)c1ccc(Nc2ccnc3nc(-c4nnc(N5CCCC5)cc4C(F)(F)F)cnc23)nc1 [Compound 120, 3-[6-pyrrolidin-1-yl-4-(trifluoromethyl)pyridazin-3-yl]-N-[5-(trifluoromethyl)pyridin-2-yl]pyrido[2,3-b]pyrazin-8-amine] | < 1
9 | O[C@H]1CCN(c2cc(C(F)(F)F)c(-c3cnc4c(Nc5ccc(C(F)(F)F)cn5)ccnc4n3)nn2)C1 [Compound 193] | < 1
10 | OC1CCCN(c2cc(C(F)(F)F)c(-c3cnc4c(Nc5ccc(C(F)(F)F)cn5)ccnc4n3)nn2)C1 (stereo not drawn) [Compound 195, 1-[5-(trifluoromethyl)-6-(8-{[5-(trifluoromethyl)pyridin-2-yl]amino}pyrido[2,3-b]pyrazin-3-yl)pyridazin-3-yl]piperidin-3-ol] | < 1
11 | CCN1CCN(c2cc(C(F)(F)F)c(-c3cnc4c(Nc5ccc(C(F)(F)F)cn5)ccnc4n3)nn2)CC1 [Compound 88, 3-[6-(4-ethylpiperazin-1-yl)-4-(trifluoromethyl)pyridazin-3-yl]-N-[5-(trifluoromethyl)pyridin-2-yl]pyrido[2,3-b]pyrazin-8-amine] | < 1
12 | FC(F)(F)c1ccc(Nc2ccnc3nc(-c4nnc(NCC5CCCO5)cc4C(F)(F)F)cnc23)nc1 (stereo not drawn) [Compound 112, 3-{6-[(tetrahydrofuran-2-ylmethyl)amino]-4-(trifluoromethyl)pyridazin-3-yl}-N-[5-(trifluoromethyl)pyridin-2-yl]pyrido[2,3-b]pyrazin-8-amine] | < 1

Next, values leading:

Row | IC50 [µM] | SMILES
13 | < 1 | CN(C)CCOc1cc(C(F)(F)F)c(-c2cnc3c(Nc4ccc(C(F)(F)F)cn4)ccnc3n2)nn1 [Compound 62, 3-{6-[2-(dimethylamino)ethoxy]-4-(trifluoromethyl)pyridazin-3-yl}-N-[5-(trifluoromethyl)pyridin-2-yl]pyrido[2,3-b]pyrazin-8-amine]
14 | < 1 | CCCCN(C)c1cc(C(F)(F)F)c(-c2cnc3c(Nc4ccc(C(F)(F)F)cn4)ccnc3n2)nn1 [Compound 122, 3-{6-[butyl(methyl)amino]-4-(trifluoromethyl)pyridazin-3-yl}-N-[5-(trifluoromethyl)pyridin-2-yl]pyrido[2,3-b]pyrazin-8-amine]
15 | < 1 | FC(F)(F)c1ccc(Nc2ccnc3nc(-c4nnc(NCc5cccnc5)cc4C(F)(F)F)cnc23)nc1 [Compound 78, 3-{6-[(pyridin-3-ylmethyl)amino]-4-(trifluoromethyl)pyridazin-3-yl}-N-[5-(trifluoromethyl)pyridin-2-yl]pyrido[2,3-b]pyrazin-8-amine]
16 | < 1 | CN(C)C(=O)CNc1cc(C(F)(F)F)c(-c2cnc3c(Nc4ccc(C(F)(F)F)cn4)ccnc3n2)nn1 [Compound 167, N,N-dimethyl-N2-[5-(trifluoromethyl)-6-(8-{[5-(trifluoromethyl)pyridin-2-yl]amino}pyrido[2,3-b]pyrazin-3-yl)pyridazin-3-yl]glycinamide]
17 | < 1 | COCCN(C)c1cc(C(F)(F)F)c(-c2cnc3c(Nc4ccc(C(F)(F)F)cn4)ccnc3n2)nn1 [Compound 181, 3-{6-[(2-methoxyethyl)(methyl)amino]-4-(trifluoromethyl)pyridazin-3-yl}-N-[5-(trifluoromethyl)pyridin-2-yl]pyrido[2,3-b]pyrazin-8-amine]
18 | < 1 | OCCNc1cc(C(F)(F)F)c(-c2cnc3c(Nc4ccc(C(F)(F)F)cn4)ccnc3n2)nn1 [Compound 168, 2-{[5-(trifluoromethyl)-6-(8-{[5-(trifluoromethyl)pyridin-2-yl]amino}pyrido[2,3-b]pyrazin-3-yl)pyridazin-3-yl]amino}ethanol]
19 | < 1 | CCN(CCN(C)C)c1cc(C(F)(F)F)c(-c2cnc3c(Nc4ccc(C(F)(F)F)cn4)ccnc3n2)nn1 [Compound 94, N-ethyl-N′,N′-dimethyl-N-[5-(trifluoromethyl)-6-(8-{[5-(trifluoromethyl)pyridin-2-yl]amino}pyrido[2,3-b]pyrazin-3-yl)pyridazin-3-yl]ethane-1,2-diamine]
20 | < 1 | CN(CCOCCO)c1cc(C(F)(F)F)c(-c2cnc3c(Nc4ccc(C(F)(F)F)cn4)ccnc3n2)nn1 [Compound 67, 2-(2-{methyl[5-(trifluoromethyl)-6-(8-{[5-(trifluoromethyl)pyridin-2-yl]amino}pyrido[2,3-b]pyrazin-3-yl)pyridazin-3-yl]amino}ethoxy)ethanol]
21 | < 1 | CCNc1cc(C(F)(F)F)c(-c2cnc3c(Nc4ccc(C(F)(F)F)cn4)ccnc3n2)nn1 [Compound 101, 3-[6-(ethylamino)-4-(trifluoromethyl)pyridazin-3-yl]-N-[5-(trifluoromethyl)pyridin-2-yl]pyrido[2,3-b]pyrazin-8-amine]
22 | < 1 | CC(C)Nc1cc(C(F)(F)F)c(-c2cnc3c(Nc4ccc(C(F)(F)F)cn4)ccnc3n2)nn1 [Compound 157, 3-[6-(isopropylamino)-4-(trifluoromethyl)pyridazin-3-yl]-N-[5-(trifluoromethyl)pyridin-2-yl]pyrido[2,3-b]pyrazin-8-amine]
23 | < 1 | CC(O)CNc1cc(C(F)(F)F)c(-c2cnc3c(Nc4ccc(C(F)(F)F)cn4)ccnc3n2)nn1 (stereo not drawn) [Compound 116, 1-{[5-(trifluoromethyl)-6-(8-{[5-(trifluoromethyl)pyridin-2-yl]amino}pyrido[2,3-b]pyrazin-3-yl)pyridazin-3-yl]amino}propan-2-ol]
24 | < 1 | CC(C)N(C)c1cc(C(F)(F)F)c(-c2cnc3c(Nc4ccc(C(F)(F)F)cn4)ccnc3n2)nn1 [Compound 185, 3-{6-[isopropyl(methyl)amino]-4-(trifluoromethyl)pyridazin-3-yl}-N-[5-(trifluoromethyl)pyridin-2-yl]pyrido[2,3-b]pyrazin-8-amine]
25 | < 1 | FC(F)(F)c1cnc(Nc2ccnc3nc(-c4nnccc4C(F)(F)F)cnc23)cn1 [Compound 46, N-[5-(trifluoromethyl)-2-pyrazinyl]-3-[4-(trifluoromethyl)-3-pyridazinyl]pyrido[2,3-b]pyrazin-8-amine]
26 | < 1 | CN(C)C1CCCN(c2cc(C(F)(F)F)c(-c3cnc4c(Nc5ccc(C(F)(F)F)cn5)ccnc4n3)nn2)C1 (stereo not drawn) [Compound 132, 3-{6-[3-(dimethylamino)piperidin-1-yl]-4-(trifluoromethyl)pyridazin-3-yl}-N-[5-(trifluoromethyl)pyridin-2-yl]pyrido[2,3-b]pyrazin-8-amine]
27 | < 1 | COCCCNc1cc(C(F)(F)F)c(-c2cnc3c(Nc4ccc(C(F)(F)F)cn4)ccnc3n2)nn1 [Compound 164, 3-{6-[(3-methoxypropyl)amino]-4-(trifluoromethyl)pyridazin-3-yl}-N-[5-(trifluoromethyl)pyridin-2-yl]pyrido[2,3-b]pyrazin-8-amine]
28 | < 1 | COCCNc1cc(C(F)(F)F)c(-c2cnc3c(Nc4ccc(C(F)(F)F)cn4)ccnc3n2)nn1 [Compound 163, 3-{6-[(2-methoxyethyl)amino]-4-(trifluoromethyl)pyridazin-3-yl}-N-[5-(trifluoromethyl)pyridin-2-yl]pyrido[2,3-b]pyrazin-8-amine]
29 | < 1 | CC(C)N(CCO)c1cc(C(F)(F)F)c(-c2cnc3c(Nc4ccc(C(F)(F)F)cn4)ccnc3n2)nn1 [Compound 197, 2-{isopropyl[5-(trifluoromethyl)-6-(8-{[5-(trifluoromethyl)pyridin-2-yl]amino}pyrido[2,3-b]pyrazin-3-yl)pyridazin-3-yl]amino}ethanol]

Same assay, conditions: assay provided in Example 6; cells expressing human capsaicin receptor, capsaicin at EC50

Row | IC50 [µM] | SMILES
30 | < 1 | FC(F)(F)c1ccc(Nc2ccnc3nc(-c4ncncc4C(F)(F)F)ccc23)nc1 [Compound 5, N-[5-(Trifluoromethyl)pyridin-2-yl]-7-[5-(trifluoromethyl)pyrimidin-4-yl]-1,8-naphthyridin-4-amine]
